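Briefly, cells in 96-well plates were exposed to five compound concentrations for 48 h, and endpoints were estimated by linear interpolation. GI50 marks 50% less growth. TGI marks complete inhibition of growth.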
Tests used:
Assay in all cases: DTP human tumour cell line panel, 48 h; in the data active = GI50 below about 0.43 µM; inactive = the rest
[1] = test system: A549 NSCLC
[2] = test system: BT-549 breast
[3] = test system: CCRF-CEM leukemia
[4] = test system: COLO 205 colon
[5] = test system: DU-145 prostate
[6] = test system: EKVX NSCLC
[7] = test system: HCC-2998 colon
[8] = test system: HCT-15 colon
[9] = test system: HL-60(TB) leukemia
[10] = test system: HOP-62 NSCLC
[11] = test system: HOP-92 NSCLC
[12] = test system: HS 578T breast
[13] = test system: HT29 colon
[14] = test system: IGROV1 ovarian
[15] = test system: K-562 leukemia
[16] = test system: KM12 colon
[17] = test system: LOX IMVI melanoma
[18] = test system: M14 melanoma
[19] = test system: MALME-3M melanoma
[20] = test system: MCF7 breast
[21] = test system: MDA-MB-231 breast
[22] = test system: MDA-MB-435
[23] = test system: MOLT-4 leukemia
[24] = test system: NCI-H23 lung
[25] = test system: NCI-H460 lung
[26] = test system: NCI/ADR-RES ovarian
[27] = test system: OVCAR-8 ovarian
[28] = test system: PC-3 prostate
[29] = test system: RPMI-8226 leukemia
[30] = test system: RXF 393 renal
[31] = test system: SF-268 CNS
[32] = test system: SF-539 CNS
[33] = test system: SK-MEL-2 melanoma
[34] = test system: SK-MEL-28 melanoma
[35] = test system: SK-MEL-5 melanoma
[36] = test system: SK-OV-3 ovarian
[37] = test system: SN12C renal
[38] = test system: SNB-19 CNS
[39] = test system: SNB-75 CNS
[40] = test system: SR leukemia
[41] = test system: SW-620 colon
[42] = test system: TK-10 renal
[43] = test system: U251 CNS
[44] = test system: UACC-257 melanoma
[45] = test system: UACC-62 melanoma
[46] = test system: UO-31 renal

c1ccc(C2=NN[C@H](c3cn(-c4ccccc4)nc3-c3ccccc3)C2)cc1
8.07 µM: TGI [11]
7.74 µM: TGI [42]
inactive: GI50 [1] 4.02 µM | GI50 [2] 5.9 µM | GI50 [3] > 100 µM | GI50 [4] 6.55 µM | GI50 [5] 71.8 µM | GI50 [6] 4 µM | GI50 [7] > 100 µM | GI50 [8] > 100 µM | GI50 [9] > 100 µM | GI50 [10] 2.16 µM | GI50 [11] 2.72 µM | GI50 [12] 2.63 µM | GI50 [13] > 100 µM | GI50 [14] 5.57 µM | GI50 [15] > 100 µM | GI50 [16] > 100 µM | GI50 [17] 3.33 µM | GI50 [18] 6.46 µM | GI50 [19] 8.98 µM | GI50 [20] > 100 µM | GI50 [21] 3.86 µM | GI50 [22] > 100 µM | GI50 [23] > 100 µM | GI50 [24] 7.21 µM | GI50 [25] 4.26 µM | GI50 [26] 3.98 µM | GI50 [27] 3.64 µM | GI50 [28] 6.22 µM | GI50 [29] > 100 µM | GI50 [30] 2.58 µM | GI50 [31] 5.98 µM | GI50 [32] 9.11 µM | GI50 [33] 30.2 µM | GI50 [34] 4.89 µM | GI50 [35] 7.66 µM | GI50 [36] 2.04 µM | GI50 [37] 4.18 µM | GI50 [38] 5.05 µM | GI50 [39] 2.05 µM | GI50 [40] > 100 µM | GI50 [41] 9.34 µM | GI50 [42] 2.82 µM | GI50 [43] 2.91 µM | GI50 [44] > 100 µM | GI50 [45] 6.61 µM | GI50 [46] 2.87 µM
7.45 µM: TGI [12]
> 100 µM: TGI [1] | TGI [2] | TGI [3] | TGI [4] | TGI [5] | TGI [6] | TGI [7] | TGI [8] | TGI [9] | TGI [13] | TGI [14] | TGI [15] | TGI [16] | TGI [17] | TGI [18] | TGI [19] | TGI [20] | TGI [21] | TGI [22] | TGI [23] | TGI [24] | TGI [25] | TGI [26] | TGI [27] | TGI [28] | TGI [29] | TGI [31] | TGI [32] | TGI [33] | TGI [34] | TGI [35] | TGI [37] | TGI [38] | TGI [40] | TGI [41] | TGI [44] | TGI [45] | TGI [46]
15.6 µM: TGI [43]
4.19 µM: TGI [39]
4.52 µM: TGI [36]
5.58 µM: TGI [10]
9.85 µM: TGI [30]
